The target in one data set is T1, NS3 protease (Hepatitis C virus genotype 4a, UniProt O39929).
T1 construct: NS3 protease domain 1–181 aa plus an N-terminal T7 tag and C-terminal His tag; made in house; host or cells: E. coli Rosetta (DE3) pLysS, vector pET-3a
The experiment in a line: Enzyme inhibition assay (SensoLyte 520 HCV Protease Assay Kit, modified). It is filed as biochemical, HCV genotype 4a. The procedure:
MOC-24 was selected for a qualitative testing for its inhibition of NS3 protease activity. Experiments were carried out using the SensoLyte® 520 HCV Protease Assay Kit. This assay measures the recovered fluorescence emitted upon cleavage of the labeled peptide substrate representing the NS4A/NS4B junction. Considering that NS3 without NS4A is almost a thousand-times less catalytic, the method was modified to suit the purpose of our allosteric inhibition assay. […] As a positive control, an equimolar mixture of NS4A with NS3 (equimolar, 2.00 µM each) caused only a 9-fold increase in the catalytic activity of the enzyme (Figure 5), which was far less than the reported value, possibly due to the large amount of protein used.
The assay was performed using SensoLyte-520® HCV protease assay kit fluorometric* (Anaspec, Fremont, CA, USA) according to a modified procedure to suit the purpose of determination of allosteric inhibition. NS3 (2.00 µM) was mixed with MOC-24 (4.00 µM) for 15.0 min. Afterwards, 5-FAM/QXL™520 fluorescence resonance energy transfer (FRET) peptide was added as instructed by the assay kit manual. […] In the FRET peptide, the fluorescence of 5-FAM is quenched by QXL™520. Upon cleavage into two separate fragments by HCV NS3/4A protease, the fluorescence of 5-FAM is recovered, and can be monitored at 490 nm/520 nm (excitation/emission). […]

The target of another data set is T2, NS3 domain (Hepatitis C virus genotype 4a, UniProt O39929).
T2 construct: NS3 protease domain 1–181 aa plus an N-terminal T7 tag and C-terminal His tag; made in house; host or cells: E. coli Rosetta (DE3) pLysS, vector pET-3a
The experiment in a line: Differential static light scattering (DSLS) binding test. More on the design: species or system HCV genotype 4a. As to conditions: NS3 domain 15.0 µM with equimolar compound; for ΔTagg (liganded protein − free protein): 25.0 to 85.0 °C, n = 3; for ΔTagg as % of the positive control NS4A21`–33`: relative to NS4A21`–33`. The procedure:
We studied the binding of MOC compounds with NS3 by differential static light scattering (DSLS). The NS3 domain stability upon binding to NS4A was measured by monitoring denatured protein aggregation upon increasing the temperature gradually from 25.0 to 85.0 °C (0.5 °C increments) at 600 nm. If a ligand binds to the protein, this increases a protein’s aggregation temperature (Tagg). DSLS provides an advantage of being a label-free binding assay technique and ΔTagg (of liganded protein−free protein) can be used to assess relative binding affinities of ligands. For NS3, the ΔTagg values that occurred upon binding of the MOC compounds were measured and compared to that of NS4A21`–33` as a positive control.
We studied the binding of NS4A and its mutants with NS3 by DSLS using Stargazer-2™ (Harbinger Biotechnology and Engineering Corporation, Toronto, Canada). This method assesses protein stability by monitoring aggregate formation using controlled, gradually elevated temperatures. The NS3 domain stability upon binding to NS4A was measured by monitoring denatured protein aggregation upon increasing the temperature from 25.0 to 85.0 °C (0.5 °C increments) at 600 nm. The Tagg values were calculated automatically from raw data using Stargazer-AIR® software. All experiments were repeated three times using the same batch of NS3 protein.
The NS3 domain (15.0 µM), alone or mixed with an equimolar equivalent of tested MOC derivative, was added to a binding buffer (20.0 mM HEPES, 10.0 mM DTT, 200 mM NaCl, pH 7.60) to a final volume 100 µL. The mixture was incubated at room temperature with gentle shaking for 2 h. Afterwards, 10 µL of the mixture was transferred into a clear bottomed Nunc 384-well plate and covered by 10 µL paraffin oil to minimize evaporation. Protein aggregation was monitored by tracking the change in scattered light that was detected by a charged coupled device (CCD) camera. Snapshot images of the plate were taken every 0.5 °C. The pixel intensities in a preselected region of each well were integrated using image analysis software to generate a value representative of the total amount of scattered light in that region. These intensities were then plotted against temperature for each sample well and fitted to obtain the aggregation temperature (Tagg). Aggregation was monitored and analyzed to assess the effect of NS4A and its synthetic analogues on the stability of the NS3 as an indicator of binding. Each experiment was repeated three times. Statistical analysis was performed using GraphPad Prism v. 8.0® and Instat® v. 3.10 software.

The target of data set [1] is T3, NS3 (NS4A21`–33` binding site) (Hepatitis C virus genotype 4a, UniProt O39929).
T3 construct: NS3 protease domain 1–181 aa plus an N-terminal T7 tag and C-terminal His tag; made in house; host or cells: E. coli Rosetta (DE3) pLysS, vector pET-3a
Description: Fluorescence anisotropy (FA) competition assay with FITC-NS4A21`–33`. On the set-up: species or system HCV genotype 4a. As to conditions: displacement of FITC-NS4A21`–33` (0.10 µM) from NS3, 480/520 nm, compounds 150 to 0.292 µM; for IC50: Competition IC50 ± SEM. The procedure:
This assay measures the potency by which synthetic peptidomimetics affect the binding of labeled NS4A21`–33`. Before testing the MOC compounds, the binding affinity of fluorescein isothiocyanate NS4A21`–33` (FITC-NS4A21`–33`) was first determined (see Supplementary Material Figure S3) based on our previous work. For this particular protein batch, the optimal ratio to be used in the FA affinity test was calculated to be 0.5 µM NS3 and 0.1 µM FITC-NS4A21`–33`. Compounds that efficiently compete with NS4A21`–33` are expected to decrease the fluorescence emitted from NS3/FITC-4A21-34` mixture.
In a 96-well plate, we added a place binding buffer (20 mM HEPES, 10 mM DTT, 200 mM NaCl, pH 7.60) and a mixture of NS3 ([…]) and FITC-NS4A (0.10 µM) at the calculated affinity constant concentration. A serial dilution of MOC compounds (dissolved in 1.50% DMSO in binding buffer) (1/2 dilution starting from 150 to 0.292 µM) were mixed gently for 60 min in a dark place and the fluorescence was measured at excitation/emission wavelengths of 480/520 nm. The competition IC50 was calculated according to the recommended equation embedded in GraphPad Prism v. 8.0® and Instat® software.
For orientation: Polarisation of emitted light reports the rotation of a fluorescent probe.

The target of data set [2] is HCV NS3 protease domain, genotype 4a (1-181 aa, N-terminal T7 tag, C-terminal His tag) (hepatitis C virus genotype 4a).

Several values for one entry are separate records, joined by “and”; a condition that tells them apart may be missing. Equal entries are not always repeated. Entries after “also recorded” stand apart in the source; their conditions may differ. Bounds are passed on as bounds.

As usually defined, the IC50 is the point on the concentration scale where inhibition reaches its midpoint. A lower IC50 goes with higher potency. What is called melting point is the temperature of the solid-liquid transition.

As for LL-G21SVVIVGRIVLSG33-LL [NS4A], the “fold increase in the catalytic activity of the enzyme” value at NS3 protease (positive control, NS4A equimolar with NS3, 2.00 µM each) was determined as 9 fold.

On to `CCCCCCNC(=O)c1ncc(C(=O)NCc2ccccn2)[nH]1` [MOC-33, N^2-(n-Hexyl)-N^5-(pyridin-2-ylmethyl)-1H-imidazole-2,5-dicarboxamide], for which the “ΔTagg (liganded protein − free protein)” value at NS3 domain is given as “much weaker binding”. Besides, in data set [1], the IC50 was found to be 40.3 ± 24 µM and the “Competition IC50 ± SEM” value is “much weaker binding”.

Regarding `N=C(N)NCCCCNC(=O)c1cnc(C(=O)NCCCOc2ccccc2)[nH]1` [MOC-29, N^5-(4-Guanidinobutyl)-N^2-(3-phenoxypropyl)-1H-imidazole-2,5-dicarboxamide], the melting point was in the range of 135 to 138 °C. In addition, in data set [1], the IC50 was more than 100 µM.

For `CCCCCNC(=O)c1ncc(C(=O)NCC(=O)NC)[nH]1` [MOC-11, N^5-(2-(Methylamino)-2-oxoethyl)-N^2-(n-pentyl)-1H-imidazole-2,5-dicarboxamide], the melting point turned out to be 87 °C. For the same compound, on NS3 domain, the “ΔTagg (liganded protein − free protein)” value was 0.82 °C and the “ΔTagg as % of the positive control NS4A21`–33`” value (“ΔTagg as %” below) was found to be 54.6%. Moreover, the IC50 in data set [1] came out at 17.3 ± 1.22 µM.

As to `CCCCCCNC(=O)c1ncc(C(=O)NCCCCNC(=N)N)[nH]1` [MOC-24, N^5-(4-Guanidinobutyl)-N^2-(n-hexyl)-1H-imidazole-2,5-dicarboxamide], at NS3 domain, the “ΔTagg (liganded protein − free protein)” value stood at 0.60 °C; the “ΔTagg as %” value was 39.8% and 40%. In addition, the IC50 in data set [1] was 1.9 µM and 1.91 µM. The NS3 catalytic activity result on NS3 protease (qualitative, NS3 2.00 µM, MOC-24 4.00 µM, 5-FAM/QXL520 FRET peptide) is on record as “inhibited NS3 protease activity; also recorded: complete loss of NS3 catalytic activity”.

In data set [2], NS4A_(21`–33`) peptide, LL-G21…33-LL gave an NS3 protease activity (SensoLyte 520 HCV protease assay, 5-FAM/QXL520 FRET peptide); NS3 2.00 µM with NS4A 2.00 µM against NS3 alone of 9 fold.

`N=C(N)NCCCCNC(=O)c1cnc(C(=O)NCCOC2CCCCC2)[nH]1` [MOC-26, N^2-(2-(Cyclohexyloxy)ethyl)-N^5-(4-guanidinobutyl)-1H-imidazole-2,5-dicarboxamide] yielded an IC50 in data set [1] of more than 100 µM.

`CC(C)OCCCCNC(=O)c1ncc(C(=O)NCCCCNC(=N)N)[nH]1` [MOC-30, N^5-(4-Guanidinobutyl)-N^2-(4-isopropoxybutyl)-1H-imidazole-2,5-dicarboxamide]: the IC50 in data set [1] amounted to 28.5 ± 8.55 µM.

In turn, `CC(C)CCCCCNC(=O)c1ncc(C(=O)NCCCCNC(=N)N)[nH]1` [MOC-31, N^5-(4-Guanidinobutyl)-N^2-(6-methylheptyl)-1H-imidazole-2,5-dicarboxamide] yielded a melting point of 83 to 84 °C. The IC50 in data set [1] worked out at 12.1 ± 1.69 µM.

As to `N=C(N)NCCCCNC(=O)c1cnc(C(=O)NCCCOC2CCCCC2)[nH]1` [MOC-27, N^2-(3-(Cyclohexyloxy)propyl)-N^5-(4-guanidinobutyl)-1H-imidazole-2,5-dicarboxamide], the IC50 in data set [1] was more than 100 µM.

For the compound `N=C(N)NCCCCNC(=O)c1cnc(C(=O)NCCOc2ccccc2)[nH]1` [MOC-28, N^5-(4-Guanidinobutyl)-N^2-(2-phenoxyethyl)-1H-imidazole-2,5-dicarboxamide], the melting point lay within 137 to 139 °C. Besides, the IC50 in data set [1] is more than 100 µM.

Take `CCCCCNC(=O)c1ncc(C(=O)NCCCCNC(=N)N)[nH]1` [MOC-23, N^5-(4-Guanidinobutyl)-N^2-(n-pentyl)-1H-imidazole-2,5-dicarboxamide]: on NS3 domain, the “ΔTagg (liganded protein − free protein)” value was found to be 0.32 °C and the “ΔTagg as %” value is given as 19.5%. This compound registered an IC50 in data set [1] of 4.7 ± 0.327 µM.

As to `CCC(C)CCNC(=O)c1ncc(C(=O)NCCCCNC(=N)N)[nH]1` (centres unmarked) [MOC-32, N^5-(4-guanidinobutyl)-N^2-(3-methylpentyl)-1H-imidazole-2,5-dicarboxamide], the IC50 in data set [1] was 7.7 µM and 7.74 µM.

The values above are taken from publication PMC7175367, “1H-Imidazole-2,5-Dicarboxamides as NS4A Peptidomimetics: Identification of a New Approach to Inhibit HCV-NS3 Protease” (Biomolecules, 2020).
